Structures are written as SMILES.

As a reminder, the EC50 is the concentration needed to bring the measured effect to its halfway point.

For the assay, the system named is ER-alpha MCF7. Description: ER-alpha MCF7 HCS EC50; stated as measured by in vitro cell proliferation assays of Examples 902 and 903. The assay is classed as cell-based. Particulars: Homo sapiens, MCF7, MCF7 cells; Table 2. The gist of the method: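 MCF7 cells seeded 1000-2000 cells/well for 16 h, then treated with nine-point 1:2 DMSO dilution series in quadruplicate at 37 °C, 5% CO2 for 4 days. Viable cells quantified by CellTiter-Glo ATP luminescence; EC50 calculated. Controls: fulvestrant at final 100 nM, DMSO 0.2% v/v.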
Turning to `C[C@@H]1Cc2c([nH]c3ccccc23)[C@@H](c2c(F)cc(NC3CN(CCCF)C3)cc2F)N1S(C)(=O)=O` [Example 311, N-[3,5-difluoro-4-[(1R,3R)-3-methyl-2-methylsulfonyl-1,3,4,9-tetrahydropyrido[3,4-b]indol-1-yl]phenyl]-1-(3-fluoropropyl)azetidin-3-amine], the EC50 stood at 248 pM.

Turning to `C[C@@H]1Cc2c([nH]c3ccccc23)[C@@H](c2ccc(OCCN3CC(CF)C3)cc2)N1C[C@@](C)(F)CO` [Example 275, (R)-2-fluoro-3-((1R,3R)-1-(4-(2-(3-(fluoromethyl)azetidin-1-yl)ethoxy)phenyl)-3-methyl-1,3,4,9-tetrahydro-2H-pyrido[3,4-b]indol-2-yl)-2-methylpropan-1-ol], the EC50 worked out at 166 pM.

Consider `C[C@@H]1Cc2c([nH]c3ccccc23)[C@@H](c2c(F)cc(OC3CN(CCCF)C3)cc2F)N1S(C)(=O)=O` [Example 202, (1R,3R)-1-[2,6-difluoro-4-[1-(3-fluoropropyl)azetidin-3-yl]oxy-phenyl]-3-methyl-2-methylsulfonyl-1,3,4,9-tetrahydropyrido[3,4-b]indole], for which the EC50 is 100 pM. As for `CC(CN1C(C)Cc2c([nH]c3ccccc23)C1c1c(F)cc(OC2CN(CCCF)C2)cc1F)C(=O)O` (stereo not drawn) [Example 351, 3-[1-[2,6-difluoro-4-[1-(3-fluoropropyl)azetidin-3-yl]oxy-phenyl]-3-methyl-1,3,4,9-tetrahydropyrido[3,4-b]indol-2-yl]-2-methyl-propanoic acid], the figure is 33000 pM; as for `C[C@@H]1Cc2c([nH]c3ccccc23)[C@@H](c2c(F)cc(OCCN3CC(CF)C3)cc2F)N1C[C@](C)(F)CO` [Example 154, (S)-3-((1R,3R)-1-(2,6-difluoro-4-(2-(3-(fluoromethyl)azetidin-1-yl)ethoxy)phenyl)-3-methyl-3,4-dihydro-1H-pyrido[3,4-b]indol-2(9H)-yl)-2-fluoro-2-methylpropan-1-ol], 33.3 pM; as for `C[C@@H]1Cc2c([nH]c3ccccc23)[C@@H](c2c(F)cc(OC3CN(CC=C(F)F)C3)cc2F)N1CC(C)(C)F` [Example 317, (1R,3R)-1-[4-[1-(3,3-difluoroallyl)azetidin-3-yl]oxy-2,6-difluoro-phenyl]-2-(2-fluoro-2-methyl-propyl)-3-methyl-1,3,4,9-tetrahydropyrido[3,4-b]indole], 181 pM. On to `C[C@@H]1Cc2c([nH]c3cccc(F)c23)[C@@H](c2c(F)cc(OCCN3CC(CF)C3)cc2F)N1CC(C)(C)F` [Example 247, (1R,3R)-1-(2,6-difluoro-4-(2-(3-(fluoromethyl)azetidin-1-yl)ethoxy)phenyl)-5-fluoro-2-(2-fluoro-2-methylpropyl)-3-methyl-2,3,4,9-tetrahydro-1H-pyrido[3,4-b]indole], for which the EC50 turned out to be 4340 pM. With `C[C@@H]1Cc2c([nH]c3ccccc23)[C@@H](c2c(F)cc(OCCN3CC(CF)C3)cc2F)N1CC(=O)N(C)C` [Example 254, 2-[(1R,3R)-1-[2,6-difluoro-4-[2-[3-(fluoromethyl)azetidin-1-yl]ethoxy]phenyl]-3-methyl-1,3,4,9-tetrahydropyrido[3,4-b]indol-2-yl]-N,N-dimethyl-acetamide], the EC50 was 40000 pM. The result for `C[C@@H]1Cc2c([nH]c3c(F)cccc23)[C@@H](c2c(F)cc(OCCN3CC(CF)C3)cc2F)N1CC(C)(C)F` [Example 260, (1R,3R)-1-(2,6-difluoro-4-(2-(3-(fluoromethyl)azetidin-1-yl)ethoxy)phenyl)-8-fluoro-2-(2-fluoro-2-methylpropyl)-3-methyl-2,3,4,9-tetrahydro-1H-pyrido[3,4-b]indole] reads 881 pM; that for `C[C@@H]1Cc2c([nH]c3ccccc23)[C@@H](c2c(F)cc(OCCN3CC(CF)C3)cc2F)N1CC(C)(C)C(=O)O` [Example 374, 3-((1R,3R)-1-(2,6-difluoro-4-(2-(3-(fluoromethyl)azetidin-1-yl)ethoxy)phenyl)-3-methyl-1,3,4,9-tetrahydro-2H-pyrido[3,4-b]indol-2-yl)-2,2-dimethylpropanoic acid], 1550 pM; that for `CC(C)(F)CN1CCc2c([nH]c3ccccc23)[C@H]1c1c(F)cc(OCCN2CC(CF)C2)cc1F` [Example 236, (IR)-1-[2,6-difluoro-4-[2-[3-(fluoromethyl)azetidin-1-yl]ethoxy]phenyl]-2-(2-fluoro-2-methyl-propyl)-1,3,4,9-tetrahydropyrido[3,4-b]indole], 182 pM. The result for `CC1(C)Cc2c([nH]c3ccccc23)[C@H](c2c(F)cc(NC3CN(CCCF)C3)cc2F)N1CC(F)(F)CO` [Example 421, (S)-3-(1-(2,6-difluoro-4-((1-(3-fluoropropyl)azetidin-3-yl)amino)phenyl)-3,3-dimethyl-3,4-dihydro-1H-pyrido[3,4-b]indol-2(9H)-yl)-2,2-difluoropropan-1-ol] reads 146 pM.

Turning to `CNS(=O)(=O)N1[C@H](c2ccc(OCCN3CC(CF)C3)cc2)c2[nH]c3ccccc3c2C[C@H]1C` [Example 313, (1R,3R)-1-[4-[2-[3-(fluoromethyl)azetidin-1-yl]ethoxy]phenyl]-N,3-dimethyl-1,3,4,9-tetrahydropyrido[3,4-b]indole-2-sulfonamide], the EC50 was 1000 pM.

For the compound `C[C@@H]1Cc2c([nH]c3ccccc23)[C@@H](c2ccc(OC3CN(CCCF)C3)c(Cl)c2)N1CC(C)(C)F` [Example 266, (1R,3R)-1-[3-chloro-4-[1-(3-fluoropropyl)azetidin-3-yl]oxy-phenyl]-2-(2-fluoro-2-methyl-propyl)-3-methyl-1,3,4,9-tetrahydropyrido[3,4-b]indole], the EC50 stood at 10000 pM. With `C[C@@H]1Cc2c([nH]c3ccccc23)[C@@H](c2c(F)cc(OC3CN(CCCF)C3)cc2F)N1C(=O)C1(F)CCC1` [Example 225, [(1R,3R)-1-[2,6-difluoro-4-[1-(3-fluoropropyl)azetidin-3-yl]oxy-phenyl]-3-methyl-1,3,4,9-tetrahydropyrido[3,4-b]indol-2-yl]-(1-fluorocyclobutyl)methanone], the EC50 turned out to be 1000 pM.

For `C[C@H](CN1[C@H](c2c(F)cc(OCCN3CC(CF)C3)cc2F)c2[nH]c3ccccc3c2C[C@H]1C)C(=O)O` [Example 300, (R)-3-((1R,3R)-1-(2,6-difluoro-4-(2-(3-(fluoromethyl)azetidin-1-yl)ethoxy)phenyl)-3-methyl-1,3,4,9-tetrahydro-2H-pyrido[3,4-b]indol-2-yl)-2-methylpropanoic acid], the EC50 worked out at 1000 pM. The result for `C[C@H](O)CN1[C@H](c2c(F)cc(OC3CN(CCCF)C3)cc2F)c2[nH]c3ccccc3c2C[C@H]1C` [Example 263, (S)-1-((1R,3R)-1-(2,6-difluoro-4-((1-(3-fluoropropyl)azetidin-3-yl)oxy)phenyl)-3-methyl-1,3,4,9-tetrahydro-2H-pyrido[3,4-b]indol-2-yl)propan-2-ol] reads 359 pM.

In the case of `C[C@H]1Cc2c([nH]c3cc(F)ccc23)[C@H](c2c(F)cc(NC3CN(CCCF)C3)cc2F)N1C[C@](C)(F)CO` [Example 412, (S)-3-((1S,3S)-1-(2,6-difluoro-4-((1-(3-fluoropropyl)azetidin-3-yl)amino)phenyl)-7-fluoro-3-methyl-3,4-dihydro-1H-pyrido[3,4-b]indol-2(9H)-yl)-2-fluoro-2-methylpropan-1-ol], the EC50 is 1300 pM.
